{"source": "patent US20250312258A1", "about": "“2,3-PYRROLIDINEDIONE CONJUGATES AND METHODS OF USING THEREOF” (North Carolina State University, priority 2022, published 2025)", "key": {"Group B Strep": {"system": "Group B Strep", "test": "MIC against Group B Strep strain panel", "format": "cell-based"}, "VRE": {"system": "VRE", "test": "MIC / in vitro activity against VRE strain panel", "format": "cell-based, Enterococcus spp."}, "E. coli": {"system": "E. coli", "test": "MIC against E. coli strains", "format": "cell-based"}, "vanC-1 VRE 49608": {"system": "vanC-1 VRE 49608", "test": "MIC against vanC-1 VRE 49608", "format": "cell-based, Enterococcus spp.", "conditions": "Enterococcus, VRE"}, "MSSA": {"system": "MSSA", "test": "MIC against MSSA strain panel", "format": "cell-based", "conditions": "Staphylococcus aureus, the 4th table"}, "VRSA": {"system": "VRSA", "test": "MIC against VRSA strain panel (VRS/NRS strains)", "format": "cell-based", "conditions": "Staphylococcus aureus"}, "VSE 2127": {"system": "VSE 2127", "test": "MIC against VSE 2127", "format": "cell-based, Enterococcus spp.", "conditions": "Enterococcus, read-out: MIC (VSE 2127)"}}, "note": "Where two headings read alike, the source gives them in different places.", "data": [{"smiles": "CN[C@H](CC(C)C)C(=O)N[C@H]1C(=O)N[C@@H](CC(N)=O)C(=O)N[C@H]2C(=O)N[C@H]3C(=O)N[C@H](C(=O)N[C@H](C(=O)O)c4cc(O)cc(O)c4-c4cc3ccc4O)[C@H](O)c3ccc(c(Cl)c3)Oc3cc2cc(c3O[C@@H]2O[C@H](CO)[C@@H](O)[C@H](O)[C@H]2O[C@H]2C[C@](C)(N)[C@H](O)[C@H](C)O2)Oc2ccc(cc2Cl)[C@H]1O", "note": "[Vancomycin, vancomycin, reference compound]", "values": [{"measurement": "MIC", "setting": "Group B Strep; 2009-61 Group B Strep, CA-MHB w/5% LHB, the 4th table", "value": 0.5, "unit": "µg/mL"}, {"measurement": "MIC", "setting": "Group B Strep; 2009-62 Group B Strep, CA-MHB w/5% LHB, the 4th table", "value": 0.5, "unit": "µg/mL"}, {"measurement": "MIC", "setting": "Group B Strep; J4182 Group B Strep, the 9th table", "value": 0.25, "unit": "µg/mL"}, {"measurement": "MIC", "setting": "Group B Strep; J4183 Group B Strep, the 9th table", "value": 0.5, "unit": "µg/mL"}, {"measurement": "MIC", "setting": "Group B Strep; J4185 Group B Strep, the 9th table", "value": 0.5, "unit": "µg/mL"}, {"measurement": "MIC", "setting": "Group B Strep; J4186 Group B Strep, the 9th table", "value": 0.5, "unit": "µg/mL"}, {"measurement": "MIC", "setting": "Group B Strep; J4222 Group B Strep, the 9th table", "value": 0.5, "unit": "µg/mL"}, {"measurement": "MIC", "setting": "VRE; 1593 (VRE), the 3rd table", "value": ">64", "unit": "µg/mL"}, {"measurement": "MIC", "setting": "VRE; 1593 VRE, the 4th table", "value": ">64", "unit": "µg/mL"}, {"measurement": "MIC", "setting": "VRE; 1751 (VRE), the 3rd table", "value": ">64", "unit": "µg/mL"}, {"measurement": "MIC", "setting": "VRE; 1751 VRE, the 6th table", "value": ">64", "unit": "µg/mL"}, {"measurement": "MIC", "setting": "VRE; 1772 VRE, the 6th table", "value": ">64", "unit": "µg/mL"}, {"measurement": "MIC", "setting": "VRE; 1946 VRE, the 6th table", "value": ">64", "unit": "µg/mL"}, {"measurement": "MIC", "setting": "VRE; 2059 VRE, the 6th table", "value": ">64", "unit": "µg/mL"}, {"measurement": "MIC", "setting": "VRE; 2431 VRE, the 6th table", "value": ">64", "unit": "µg/mL"}, {"measurement": "MIC", "setting": "VRE; 2574 VRE, the 6th table", "value": ">64", "unit": "µg/mL"}, {"measurement": "MIC", "setting": "VRE; 3053 VRE, the 6th table", "value": ">64", "unit": "µg/mL"}, {"measurement": "MIC", "setting": "VRE; 3183 (VRE), the 3rd table", "value": ">64", "unit": "µg/mL"}, {"measurement": "MIC", "setting": "VRE; 3183 VRE, the 6th table", "value": ">64", "unit": "µg/mL"}, {"measurement": "MIC", "setting": "VRE; 3190 VRE, the 6th table", "value": ">64", "unit": "µg/mL"}, {"measurement": "MIC", "setting": "VRE; 3191 VRE, the 6th table", "value": ">64", "unit": "µg/mL"}, {"measurement": "MIC", "setting": "VRE; 3222 (VRE, the 3rd table)", "value": ">64", "unit": "µg/mL"}, {"measurement": "MIC", "setting": "VRE; 3222 VRE, the 6th table", "value": ">64", "unit": "µg/mL"}, {"measurement": "MIC", "setting": "VRE; 3235 VRE, the 6th table", "value": ">64", "unit": "µg/mL"}, {"measurement": "MIC", "setting": "VRE; 3239 VRE, the 6th table", "value": ">64", "unit": "µg/mL"}, {"measurement": "MIC", "setting": "VRE; 3241 VRE, the 6th table", "value": ">64", "unit": "µg/mL"}, {"measurement": "MIC", "setting": "VRE; 3623 VRE, the 6th table", "value": ">64", "unit": "µg/mL"}, {"measurement": "MIC", "setting": "VRE; Enterococcus, VRE", "value": "> 64", "unit": "µg/mL"}, {"measurement": "MIC", "setting": "E. coli; AR-137 E. coli, the 4th table", "value": ">64", "unit": "µg/mL"}, {"measurement": "MIC", "setting": "E. coli; Escherichia coli", "value": "> 64", "unit": "µg/mL"}, {"measurement": "MIC", "setting": "E. coli; Escherichia coli, ATCC25922", "value": "> 64", "unit": "µg/mL"}, {"measurement": "MIC", "setting": "vanC-1 VRE 49608", "value": 32, "unit": "µg/mL"}, {"measurement": "MIC", "setting": "vanC-1 VRE 49608; read-out: MIC (vanC-1 VRE 49608)", "value": 32, "unit": "µg/mL"}, {"measurement": "MIC", "setting": "MSSA; VGP16-94 MSSA", "value": 0.5, "unit": "µg/mL"}, {"measurement": "MIC", "setting": "MSSA; VGP16-95 MSSA", "value": 0.5, "unit": "µg/mL"}, {"measurement": "MIC", "setting": "MSSA; VGP16-96 MSSA", "value": 0.5, "unit": "µg/mL"}, {"measurement": "MIC", "setting": "MSSA; VGP16-97 MSSA", "value": 0.5, "unit": "µg/mL"}, {"measurement": "MIC", "setting": "MSSA; VGP16-98 MSSA", "value": 0.5, "unit": "µg/mL"}, {"measurement": "MIC", "setting": "MSSA; VGP16-99 MSSA", "value": 1, "unit": "µg/mL"}, {"measurement": "MIC", "setting": "MSSA; VGP16-100 MSSA", "value": 0.5, "unit": "µg/mL"}, {"measurement": "MIC", "setting": "MSSA; VGP16-101 MSSA", "value": 1, "unit": "µg/mL"}, {"measurement": "MIC", "setting": "MSSA; VGP16-116 MSSA", "value": 0.5, "unit": "µg/mL"}, {"measurement": "MIC", "setting": "MSSA; VGP16-117 MSSA", "value": 0.5, "unit": "µg/mL"}, {"measurement": "MIC", "setting": "VRSA; NRS 1 / VRSA, NRS-1 (VRSA), the 3rd table", "value": 8, "unit": "µg/mL"}, {"measurement": "MIC", "setting": "VRSA; NRS 1 / VRSA, NRS-1 VRSA, the 5th table", "value": 8, "unit": "µg/mL"}, {"measurement": "MIC", "setting": "VRSA; NRS 2 / VRSA, NRS-2 VRSA, the 5th table", "value": 1, "unit": "µg/mL"}, {"measurement": "MIC", "setting": "VRSA; VRSA, VRS-1 (VRSA), the 3rd table", "value": "> 64", "unit": "µg/mL"}, {"measurement": "MIC", "setting": "VRSA; VRSA, VRS-1 VRSA, the 5th table", "value": "> 64", "unit": "µg/mL"}, {"measurement": "MIC", "setting": "VRSA; VRSA, VRS-2 (VRSA), the 3rd table", "value": 32, "unit": "µg/mL"}, {"measurement": "MIC", "setting": "VRSA; VRSA, VRS-2 VRSA, the 5th table", "value": 32, "unit": "µg/mL"}, {"measurement": "MIC", "setting": "VRSA; VRSA, VRS-3a VRSA, the 5th table", "value": 32, "unit": "µg/mL"}, {"measurement": "MIC", "setting": "VRSA; VRSA, VRS-3b VRSA, the 5th table", "value": "> 64", "unit": "µg/mL"}, {"measurement": "MIC", "setting": "VRSA; VRSA, VRS-4 (VRSA), the 3rd table", "value": 32, "unit": "µg/mL"}, {"measurement": "MIC", "setting": "VRSA; VRSA, VRS-4 VRSA, the 5th table", "value": "> 64", "unit": "µg/mL"}, {"measurement": "MIC", "setting": "VRSA; VRSA, VRS-5 VRSA, the 5th table", "value": "> 64", "unit": "µg/mL"}, {"measurement": "MIC", "setting": "VRSA; VRSA, VRS-6 VRSA, the 5th table", "value": "> 64", "unit": "µg/mL"}, {"measurement": "MIC", "setting": "VRSA; VRSA, VRS-7 VRSA, the 5th table", "value": "> 64", "unit": "µg/mL"}, {"measurement": "MIC", "setting": "VRSA; VRSA, VRS-8 VRSA, the 5th table", "value": "> 64", "unit": "µg/mL"}, {"measurement": "MIC", "setting": "VRSA; VRSA, VRS-9 VRSA, the 5th table", "value": "> 64", "unit": "µg/mL"}, {"measurement": "MIC", "setting": "VRSA; VRSA, VRS-10 VRSA, the 5th table", "value": "> 64", "unit": "µg/mL"}, {"measurement": "MIC", "setting": "VRSA; VRSA, VRS-11a VRSA, the 5th table", "value": "> 64", "unit": "µg/mL"}, {"measurement": "MIC", "setting": "VRSA; VRSA, VRS-11b VRSA, the 5th table", "value": "> 64", "unit": "µg/mL"}, {"measurement": "MIC", "setting": "VSE 2127", "value": 2, "unit": "µg/mL"}]}]}
